Reference: BindingDB's records for PubMed 9223589 (University of Tours, 1997)
“And” between values parts separate entries of the source, which are not always exact repeats. Equal entries are not always repeated.

Tests used:
[1] = target: Sodium-dependent dopamine transporter (Rattus norvegicus, UniProt P23977)
[2] = target: Sodium-dependent serotonin transporter (Rattus norvegicus, UniProt P31652)
[3] = target: Norepinephrine transporter (Rattus norvegicus, UniProt Q9JIA2)

Sodium-dependent dopamine transporter, sequence (P23977 whole entry): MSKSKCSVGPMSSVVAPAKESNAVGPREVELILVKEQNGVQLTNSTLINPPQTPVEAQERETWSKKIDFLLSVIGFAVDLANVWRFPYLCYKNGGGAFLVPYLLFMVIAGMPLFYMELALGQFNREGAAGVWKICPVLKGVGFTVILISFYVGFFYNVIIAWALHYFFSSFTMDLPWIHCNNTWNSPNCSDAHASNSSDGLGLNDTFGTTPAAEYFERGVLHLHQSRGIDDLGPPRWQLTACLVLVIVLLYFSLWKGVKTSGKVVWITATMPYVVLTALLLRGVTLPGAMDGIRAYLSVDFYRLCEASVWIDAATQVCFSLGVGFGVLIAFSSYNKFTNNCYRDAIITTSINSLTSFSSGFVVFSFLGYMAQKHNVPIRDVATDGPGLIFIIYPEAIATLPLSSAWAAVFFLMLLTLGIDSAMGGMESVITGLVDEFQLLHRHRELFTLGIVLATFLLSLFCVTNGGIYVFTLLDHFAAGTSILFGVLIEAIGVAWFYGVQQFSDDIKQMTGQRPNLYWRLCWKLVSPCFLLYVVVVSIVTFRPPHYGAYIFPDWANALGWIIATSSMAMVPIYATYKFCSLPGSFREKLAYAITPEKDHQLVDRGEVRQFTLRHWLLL
Sodium-dependent serotonin transporter, sequence (P31652 whole entry): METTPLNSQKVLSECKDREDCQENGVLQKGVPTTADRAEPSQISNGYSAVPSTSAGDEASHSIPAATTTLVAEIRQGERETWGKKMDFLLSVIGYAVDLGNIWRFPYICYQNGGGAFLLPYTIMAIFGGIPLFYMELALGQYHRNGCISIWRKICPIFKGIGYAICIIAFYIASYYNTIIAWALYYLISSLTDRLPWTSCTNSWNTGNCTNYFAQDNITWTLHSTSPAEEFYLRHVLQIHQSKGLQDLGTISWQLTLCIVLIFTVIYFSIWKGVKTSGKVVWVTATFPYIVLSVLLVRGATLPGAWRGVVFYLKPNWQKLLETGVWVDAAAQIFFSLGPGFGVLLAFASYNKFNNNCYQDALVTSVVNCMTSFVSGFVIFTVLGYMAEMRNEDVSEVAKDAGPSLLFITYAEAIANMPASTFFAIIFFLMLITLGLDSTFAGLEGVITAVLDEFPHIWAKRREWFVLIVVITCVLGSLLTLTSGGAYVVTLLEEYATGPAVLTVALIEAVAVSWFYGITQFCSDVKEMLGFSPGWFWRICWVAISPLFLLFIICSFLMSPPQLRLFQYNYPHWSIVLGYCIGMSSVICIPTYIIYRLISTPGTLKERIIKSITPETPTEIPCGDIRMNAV

Row | Structure (SMILES) | Ki [1] | Ki [2] [nM] | Ki [3] [nM]
1 | O[C@]1(c2ccc(Cl)cc2)c2ccccc2C2=NCCN21 [Mazanor] | 50 nM and 12 nM |  | 
2 | COC(=O)[C@H]1[C@@H](c2ccc(I)cc2)C[C@@H]2CC[C@H]1N2C [RTI 55, (exo,exo)-isomer, Iodine (125) labeled] | 27.5 nM | 3.1 | 80
3 | COC(=O)[C@H]1C(c2ccc(Cl)c(Cl)c2)CC2CCC1N2C/C=C/I (stereo partly drawn) [(2S,8R)-3-(3,4-Dichloro-phenyl)-8-((E)-3-iodo-allyl)-8-aza-bicyclo[3.2.1]octane-2-carboxylic acid methyl ester] |  |  | 500
